Reference: patent US20250163057A1, “DCN-1 MODULATING COMPOUNDS AND METHODS OF USE THEREOF” (Cellarity, Inc., priority 2023, published 2025)
Where two headings read alike, the source gives them in different places.

Experiments:
[1] = system: Cullin-3 (CUL3) neddylation; assay: AlphaLISA assay for Cullin-3 (CUL3) neddylation in TF 1 cells; assay type: cell-based; conditions: Homo sapiens, 3 hours treatment
Outline: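 TF 1 cells in unsupplemented IMDM treated with compound concentrations for 3 h, then lysed. CUL3 neddylation detected by AlphaLISA (biotinylated anti-NEDD8, anti-CUL3 acceptor beads overnight, streptavidin donor beads 1 h); normalized to vehicle (0%) and 1 μM DI-1548 (100%), IC50 from Hill fits.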

[2] = target: DCN1 (DCUND1) protein PONY domain (Homo sapiens (Human), UniProt Q96GG9); assay: TR-FRET assay, DCN1 binding with FAM-labeled probe
Outline: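 First, the E. coli-derived PONY domain was biotinylated and paired with streptavidin Tb cryptate. Compounds in 0.1% DMSO were then added to DCN1 and FAM-probe (5 nM/20 nM, or 0.31 nM/900 nM total with 800 nM unlabelled) in TritonX, 200 mM NaCl buffer. Finally, TR-FRET ratios were recorded at 1, 5 and 24 hrs.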

[3] = target: DCN1 protein (Homo sapiens (Human), UniProt Q96GG9); assay: Intact Protein MS Analysis with the RapidFire-TOF System (covalent adduct formation); assay type: binding; conditions: MS Emax; 400 nM DCN1, 3 hours at room temperature
Outline: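 Tag-cleaved human DCN1 (400 nM) expressed in E. coli, in 25 mM Tris-HCl, 200 mM NaCl, 1 mM DTT, was incubated with 11 compound concentrations for 3 h at room temperature and quenched with 0.2% formic acid. Intact-protein Q-TOF MS with deconvolution detected the compound adduct mass.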

[4] = 24 hr after treatment with compound, read-out: TR FRET IC50 24 hr
[5] = read-out: TR FRET IC50 1 hr, 1 hr after treatment with compound
[6] = TR FRET IC50 1 hr (nM), 1 hr after treatment with compound

DCN1 (DCUND1) protein PONY domain, sequence (Q96GG9 60-248): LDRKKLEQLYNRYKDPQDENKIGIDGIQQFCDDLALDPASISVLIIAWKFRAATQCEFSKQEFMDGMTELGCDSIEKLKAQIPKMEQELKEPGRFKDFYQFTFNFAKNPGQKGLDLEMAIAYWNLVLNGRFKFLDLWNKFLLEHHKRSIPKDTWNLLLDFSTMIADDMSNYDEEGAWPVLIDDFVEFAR
DCN1 protein, sequence (Q96GG9 whole entry): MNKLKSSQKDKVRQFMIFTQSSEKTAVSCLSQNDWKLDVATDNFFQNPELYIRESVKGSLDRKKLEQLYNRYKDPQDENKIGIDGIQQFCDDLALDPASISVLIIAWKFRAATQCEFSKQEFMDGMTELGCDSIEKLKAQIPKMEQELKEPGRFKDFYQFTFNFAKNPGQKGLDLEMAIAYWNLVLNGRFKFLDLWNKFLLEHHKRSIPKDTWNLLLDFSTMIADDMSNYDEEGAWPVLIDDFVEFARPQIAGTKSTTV

Row | Compound | IC50 ([1]; TF-1, 3 h) | IC50 [2, 4] | IC50 [2, 5] | % Adduct Formation [3] | IC50 [2, 6] | IC50 [1]
1 | CCN1C(=O)[C@@H](NC(=O)c2cccc(C(F)(F)F)c2)[C@@H](c2ccc(F)cc2)c2c(C(=O)N(C)[C@@H](C#N)CCN3CC4CC(C3)O4)nn(-c3ccccc3)c21 [Compound I-313] | ≤ 100 nM | ≤ 200 nM | ≤ 200 nM | ++ (MS Emax % adduct formation greater than 30.0 and less than or equal to 80.0) |  | 
2 | CCN1C(=O)[C@@H](NC(=O)c2cccc(C(F)(F)F)c2)[C@H](c2ccc(F)cc2)c2c(CC(=O)NCC#N)nn(-c3ccccc3)c21 [Compound I-298, N-((4R,5S)-3-(2-((cyanomethyl)amino)-2-oxoethyl)-7-ethyl-4-(4-fluorophenyl)-6-oxo-1-phenyl-4,5,6,7-tetrahydro-1H-pyrazolo[3,4-b]pyridin-5-yl)-3-(trifluoromethyl)benzamide] | 100 to 1000 nM | 200 to 1000 nM |  | + (MS Emax % adduct formation greater than or equal to 0.0 and less than or equal to 30.0) | 200 to 1000 nM | 
3 | CCN1C(=O)[C@@H](NC(=O)c2cccc(C(F)(F)F)c2)[C@@H](c2ccc(F)cc2)c2c(C(=O)N3CCC[C@H]3C#N)nn(-c3cccc(OCCCN4CCN(C5COC5)CC4)c3)c21 [Compound I-337] | ≤ 100 nM | ≤ 200 nM | ≤ 200 nM | +++ (MS Emax % adduct formation greater than 80.0 and less than or equal to 100.0) |  | 
4 | CCN1C(=O)[C@H](NC(=O)c2cccc(C(F)(F)F)c2)[C@H](c2ccc(F)cc2)c2c(C(=O)N3CCC[C@H]3C#N)nn(-c3cccc(OCCCN4CC5(COC5)C4)c3)c21 (stereo in doubt) [Compound I-293] | ≤ 100 nM | ≤ 200 nM |  | +++ (MS Emax % adduct formation greater than 80.0 and less than or equal to 100.0) | ≤ 200 nM | 
5 | CCN1C(=O)[C@@H](NC(=O)c2cccc(C(F)(F)F)c2)[C@@H](c2ccc(F)cc2)c2c([C@@H](CF)NC#N)nn(-c3ccccc3)c21 [Compound I-279] | ≤ 100 nM | ≤ 200 nM | ≤ 200 nM | +++ (MS Emax % adduct formation greater than 80.0 and less than or equal to 100.0) |  | 
6 | CCN1C(=O)[C@@H](NC(=O)c2cccc(C(F)(F)F)c2)[C@@H](c2ccc(F)cc2)c2c(C(=O)N(CC#N)CCC(=O)OC)nn(-c3ccccc3)c21 (stereo in doubt) [Compound I-288] | ≤ 100 nM | ≤ 200 nM | ≤ 200 nM | +++ (MS Emax % adduct formation greater than 80.0 and less than or equal to 100.0) |  | 
7 | CCN1C(=O)[C@@H](NC(=O)c2cccc(C(F)(F)F)c2)[C@@H](c2ccc(F)cc2)c2c(C(=O)N(CC#N)C3CC3)nn(C3CC3)c21 [Compound I-355] | ≤ 100 nM | ≤ 200 nM | ≤ 200 nM | +++ (MS Emax % adduct formation greater than 80.0 and less than or equal to 100.0) |  | 
8 | CCN1C(=O)[C@@H](NC(=O)c2cccc(C(F)(F)F)c2)[C@@H](c2ccc(C)cc2)c2c(C(=O)N(C)C(C)C#N)nn(C3CC3)c21 (stereo partly drawn) [Compound I-306] | ≤ 100 nM | ≤ 200 nM | ≤ 200 nM | ++ (MS Emax % adduct formation greater than 30.0 and less than or equal to 80.0) |  | 
9 | CCN1C(=O)[C@@H](NC(=O)c2ccn(C(F)(F)F)n2)[C@@H](c2ccc(F)cc2)c2c(C(=O)N3CCC[C@H]3C#N)nn(-c3ccccc3)c21 [Compound I-343, N-((4S,5S)-3-((S)-2-cyanopyrrolidine-1-carbonyl)-7-ethyl-4-(4-fluorophenyl)-6-oxo-1-phenyl-4,5,6,7-tetrahydro-1H-pyrazolo[3,4-b]pyridin-5-yl)-1-(trifluoromethyl)-1H-pyrazole-3-carboxamide] | ≤ 100 nM | ≤ 200 nM |  | ++ (MS Emax % adduct formation greater than 30.0 and less than or equal to 80.0) | 1000 to 3000 nM | 
10 | CCN1C(=O)[C@@H](NC(=O)c2ccc3c(c2)CCC3)[C@@H](C2CC2)c2c(C(=O)N3[C@H](C#N)C[C@H]4C[C@H]43)nn(C3CCOCC3)c21 [Compound I-391] |  | ≤ 200 nM | ≤ 200 nM | +++ (MS Emax % adduct formation greater than 80.0 and less than or equal to 100.0) |  | ≤ 100 nM
11 | CCN1C(=O)[C@@H](NC(=O)c2cccc(C(F)(F)F)c2)[C@@H](c2ccc(F)cc2)c2c(C(=O)N3CCC[C@H]3C#N)nn(-c3cccc(OCCN4CCC5(CC4)COC5)c3)c21 [Compound I-341] | ≤ 100 nM | ≤ 200 nM | ≤ 200 nM | +++ (MS Emax % adduct formation greater than 80.0 and less than or equal to 100.0) |  | 
12 | CCN1C(=O)[C@@H](NC(=O)c2cccc(C(F)(F)F)c2)[C@@H](C2CCC2)c2c(C(=O)N(C)C(C)C#N)nn(C3CCOCC3)c21 (stereo partly drawn) [Compound I-375] | ≤ 100 nM | ≤ 200 nM | ≤ 200 nM | +++ (MS Emax % adduct formation greater than 80.0 and less than or equal to 100.0) |  | 
13 | CCN1C(=O)[C@@H](NC(=O)c2cccc(C(F)(F)F)c2)[C@@H](c2ccc(F)cc2)c2c(C(=O)N(CC#N)CCCN(C)C)nn(C3CCOCC3)c21 [Compound I-353] | ≤ 100 nM | ≤ 200 nM | ≤ 200 nM | +++ (MS Emax % adduct formation greater than 80.0 and less than or equal to 100.0) |  | 
14 | CCN1C(=O)[C@@H](NC(=O)c2cccc(C(F)(F)F)c2)C(c2ccc(F)cc2)c2c(C(=O)N(C)C(C)C#N)nn(C3CCOCC3)c21 (stereo partly drawn) [Compound I-305] | ≤ 100 nM | ≤ 200 nM | ≤ 200 nM | +++ (MS Emax % adduct formation greater than 80.0 and less than or equal to 100.0) |  | 
15 | CCN1C(=O)[C@@H](NC(=O)c2ccn(C(F)(F)F)n2)[C@@H](c2ccc(F)cc2)c2c(C(=O)N3CCNC[C@H]3C#N)nn(-c3ccccc3)c21 [Compound I-346, N-((4S,5S)-3-((S)-2-cyanopiperazine-1-carbonyl)-7-ethyl-4-(4-fluorophenyl)-6-oxo-1-phenyl-4,5,6,7-tetrahydro-1H-pyrazolo[3,4-b]pyridin-5-yl)-1-(trifluoromethyl)-1H-pyrazole-3-carboxamide] | ≤ 100 nM | ≤ 200 nM |  | +++ (MS Emax % adduct formation greater than 80.0 and less than or equal to 100.0) | 200 to 1000 nM | 
16 | CCN1C(=O)[C@@H](NC(=O)c2cccc(C(F)(F)F)c2)[C@@H](c2ccc(F)cc2)c2c(C(=O)N3CC[C@H]3C#N)nn(-c3ccccc3)c21 [Compound I-275] | ≤ 100 nM | ≤ 200 nM | ≤ 200 nM | ++ (MS Emax % adduct formation greater than 30.0 and less than or equal to 80.0) |  | 
17 | CCN1C(=O)[C@@H](NC(=O)c2cccc(C(F)(F)F)c2)[C@@H](c2ccc(F)cc2)c2c(C(=O)N(CC#N)CCO)nn(-c3ccccc3)c21 (stereo in doubt) [Compound I-286] | ≤ 100 nM | ≤ 200 nM | ≤ 200 nM | + (MS Emax % adduct formation greater than or equal to 0.0 and less than or equal to 30.0) |  | 
18 | CCN1C(=O)[C@@H](NC(=O)c2cccc(C(F)(F)F)c2)[C@@H](c2ccc(F)cc2)c2c(C(=O)N(CC#N)CC(=O)OC)nn(-c3ccccc3)c21 (stereo in doubt) [Compound I-287] | ≤ 100 nM | ≤ 200 nM | ≤ 200 nM | +++ (MS Emax % adduct formation greater than 80.0 and less than or equal to 100.0) |  | 
19 | C=C(C)C(=O)N[C@@H](C)c1nn(-c2ccccc2)c2c1[C@H](c1ccc(F)cc1)[C@H](NC(=O)c1cccc(C(F)(F)F)c1)C(=O)N2CC (mixture of isomers) [Compound I-16] |  | 1000 to 3000 nM |  | + (MS Emax % adduct formation greater than or equal to 0.0 and less than or equal to 30.0) | 200 to 1000 nM | 
20 | C=C(C)C(=O)N(C)Cc1nn(-c2ccccc2)c2c1[C@H](c1ccc(F)cc1)[C@H](NC(=O)c1cccc(C(F)(F)F)c1)C(=O)N2CC (racemic) [Compound I-156] |  | 200 to 1000 nM |  | + (MS Emax % adduct formation greater than or equal to 0.0 and less than or equal to 30.0) | 200 to 1000 nM | 
21 | CCN1C(=O)[C@@H](NC(=O)c2cccc(C(F)(F)F)c2)[C@@H](c2ccc(F)cc2)c2c(C#N)nn(-c3ccccc3)c21 (racemic) [Compound I-115, rac-N-((4R,5R)-3-cyano-7-ethyl-4-(4-fluorophenyl)-6-oxo-1-phenyl-4,5,6,7-tetrahydro-1H-pyrazolo[3,4-b]pyridine-5-yl)-3-(trifluoromethyl)benzamide] |  | > 3000 nM |  | + (MS Emax % adduct formation greater than or equal to 0.0 and less than or equal to 30.0) | > 3000 nM | 
22 | C/C=C/C(=O)NCc1nn(-c2ccccc2)c2c1[C@H](c1ccc(F)cc1)[C@H](NC(=O)c1cccc(C(F)(F)F)c1)C(=O)N2CC (racemic) [Compound I-123] |  | 200 to 1000 nM |  | + (MS Emax % adduct formation greater than or equal to 0.0 and less than or equal to 30.0) | 200 to 1000 nM | 
